Laboratory results: US7888389B2 (The Regents of the University of Michigan, priority 2002, dated 2011)
“Also recorded” adds a separate entry of the source.

Experiments:
[1] = human, in vivo; cited from earlier work
[2] = in vivo; cited from earlier work
[3] = cited from earlier work
[4] = cited from earlier work; remark: listed apart in the source
copper-albumin = copper-albumin (Homo sapiens, UniProt P02768); conditions: in vitro
breast cancer cells = test: Human breast cancer xenograft growth in athymic nude mice; type: in vivo
Protocol: FIG. 5. […] 10^6 breast cancer cells were injected in the mammary fat pad of 4 groups of athymic, nude mice (5 mice per group). Control mice received no treatment.
In this study, 10^6 breast cancer cells were injected in the mammary fat pad of 4 groups of athymic, nude mice (5 mice per group). Control mice received no treatment.

[5] = therapeutic dose 1,000-2,000 mg/day

Chain of copper-albumin (P02768 25-609): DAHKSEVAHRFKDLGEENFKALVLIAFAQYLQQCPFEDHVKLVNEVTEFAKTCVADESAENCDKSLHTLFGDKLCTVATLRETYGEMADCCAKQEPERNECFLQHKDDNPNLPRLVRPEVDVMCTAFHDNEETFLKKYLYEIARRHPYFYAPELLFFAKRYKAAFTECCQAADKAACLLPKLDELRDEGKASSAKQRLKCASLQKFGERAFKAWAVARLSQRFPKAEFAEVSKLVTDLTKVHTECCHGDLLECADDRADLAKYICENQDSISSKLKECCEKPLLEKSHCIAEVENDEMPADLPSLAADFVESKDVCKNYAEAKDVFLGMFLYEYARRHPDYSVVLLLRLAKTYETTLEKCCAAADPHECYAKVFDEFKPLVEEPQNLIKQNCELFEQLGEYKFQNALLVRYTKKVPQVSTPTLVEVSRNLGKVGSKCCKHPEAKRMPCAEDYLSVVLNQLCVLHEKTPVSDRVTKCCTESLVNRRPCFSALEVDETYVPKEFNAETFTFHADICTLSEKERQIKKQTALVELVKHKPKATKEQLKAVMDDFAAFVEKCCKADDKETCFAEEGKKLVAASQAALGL

NC(=O)c1nnn(Cc2cc(Cl)c(C(=O)c3ccc(Cl)cc3)c(Cl)c2)c1N [CAI, carboxyamidotriazole]
disease stabilization in cancer patients having progressive disease before treatment [1]: 49%

CC(C)(S)[C@@H](N)C(=O)O [penicillamine]
initial hypersensitivity syndrome [2]: about a quarter to a third of patients

NCCNCCNCCN [trientine]
patients with proteinuria ([3]; after several weeks of use): about 20%
cupruresis after the first few weeks of therapy [3, 5]: 2 to 3 mg
initial cupruresis [3, 5]: 4 to 5 mg

CC(=O)[O-].CC(=O)[O-].[Zn+2] [zinc, zinc acetate]
toxicity ([4]; 150 mg daily, 200 Wilson's disease patients): no toxicity at all
copper balance induced ([4]; at the two week point): −0.35 mg daily
time to bring urine copper and nonceruloplasmin plasma copper to subtoxic levels ([4]; in vivo): as long as six months
time to intestinal metallothionein induction and negative copper balance ([4]; in vivo): approximately two weeks

tetrapropylammonium tetrathiomolybdate [TP-TM]
copper-albumin-TM tripartite binding (copper-albumin): show the standard copper-albumin-TM tripartite binding
tumor growth curves versus control animals (breast cancer cells; TM 1 mg/day, TP-TM 1 mg/day and 1.5 mg/day, p<0.01 vs control): effectively inhibiting tumor growth
TP-TM tumor growth inhibition compared with TM (breast cancer cells; TP-TM 1 and 1.5 mg/day vs AmmTM 1 mg/day): indistinguishable from that of AmmTM; also recorded: at least as effective as TM; also recorded: statistically indistinguishable from the TM curves
